Measurements taken from patent US11701377B2, “Methods for treating cancers by prodrugs of clofarabine” (priority 2016, dated 2023).

Legend:
[1] = In Vitro Metabolic Conversion Assay Using Human Plasma; format: in vitro ADME; details: incubation with human plasma at 15 µg/mL, 37° C., 60 minutes, HPLC
Experimental: Method F: In Vitro Metabolic Conversion Assay Using Human Plasma. A representative compound (Example 1, Compound 3) was incubated with human plasma at 15 µg/mL. Incubations were carried out at 37° C. in a shaker water bath. Samples were taken at 0, 10, 30 and 60 minutes, quenched with 25 μL of trifluoroacetic acid, and then centrifuged at 25,000 g for 3 minutes at 4° C. The supernatant of each sample was collected and analyzed using HPLC to monitor the formation of clofarabine. FIG. 1 illustrates the results for incubations performed at 37° C.

[2] = system: human K562 chronic myelogenous leukemia cell line; assay: In Vitro Anti-proliferative Assay Using Human K562 Leukemia Cell Line; format: cell-based; details: K562 cells, 72 hours, 37° C., 5% CO2, triplicates, cell viability
Experimental: Method H: In Vitro Anti-proliferative Assay Using Human K562 Leukemia Cell Line. A representative compound (Example 1, Compound 3) was assessed for its anti-proliferative activity against human K562 chronic myelogenous leukemia cell line at various concentrations ranging from 10 μM to 0.005 μM in triplicates. Incubations were carried out at 37° C., 5% CO2, under humidified atmosphere for 72 hours. After incubation, cell viability was examined.

CCOC(=O)OC[C@H]1O[C@@H](n2cnc3c(N)nc(Cl)nc32)[C@@H](F)[C@@H]1O [Compound 3, (2R,3R,4S,5R)-5-(6-Amino-2-chloropurin-9-yl)-2-(ethoxycarbonyloxymethyl)-4-fluoro-oxolan-3-ol]
metabolic conversion in human plasma (depletion of prodrug, formation of clofarabine) [1]: depletion of 3 was observed along with the formation of clofarabine as its metabolite | IC50 [2]: 324 ± 18 nM
